# How the values were obtained:
# Test in all cases: In vitro competitive activity-based protein profiling (gel-based, FP-Rh or HT-01 probe)
# Assay type in all cases: biochemical
# [1] = target: T1, MAGL (Mus musculus, UniProt O35678); conditions: for inhibition at 10 µM: 10 μM inhibitor; for IC50: mouse brain membrane fraction or cell lysates, 30 min preincubation at 37° C., read-out: Mouse (IC50 value, nM) MAGL; for inhibition at 1 µM: 1 μM inhibitor
# T1 construct: Proteomes (mouse brain membrane fraction or cell lysates); from tissue; host or cells: mouse brain membrane fraction (or cell lysates, not specified)
# T1 sequence (O35678 1-303): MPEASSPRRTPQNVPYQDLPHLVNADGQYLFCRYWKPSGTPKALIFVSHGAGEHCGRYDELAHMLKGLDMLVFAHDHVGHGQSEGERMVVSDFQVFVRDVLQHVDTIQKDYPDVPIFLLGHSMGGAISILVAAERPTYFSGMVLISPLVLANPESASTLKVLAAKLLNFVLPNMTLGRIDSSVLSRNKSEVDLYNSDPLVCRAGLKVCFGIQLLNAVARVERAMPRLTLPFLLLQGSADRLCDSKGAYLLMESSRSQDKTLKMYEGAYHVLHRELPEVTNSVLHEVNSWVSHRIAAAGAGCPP
# Protocol: (§1) In Vitro Competitive Activity-Based Protein Profiling.
# (§2) Proteomes (mouse brain membrane fraction or cell lysates) (50 μL, 1.0 mg/mL total protein concentration) were preincubated with varying concentrations of inhibitors at 37° C. After 30 min, FP-Rh or HT-01 ([…], 50 μM in DMSO) was added and the mixture was incubated for another 30 min at 37° C. Reactions were quenched with SDS loading buffer (15 μL—4×) and run on SDS-PAGE. Following gel imaging, serine hydrolase activity was determined by measuring fluorescent intensity of gel bands corresponding to MAGL, ABHD6, FAAH, and PLA2G7 using ImageJ 1.43u software.
# [2] = target: T2, ABHD6 (Mus musculus, UniProt Q8R2Y0); conditions: for inhibition at 10 µM: 10 μM inhibitor, read-out: % Inhibition at 10 μM, C = ABHD6; for IC50: mouse brain membrane fraction or cell lysates, 30 min preincubation at 37° C., read-out: Mouse (IC50 value, nM) ABHD6; for inhibition at 1 µM: 1 μM inhibitor, read-out: % Inhibition at 1 μM, C = ABHD6
# T2 construct: Proteomes (mouse brain membrane fraction or cell lysates); from tissue; host or cells: mouse brain membrane fraction (or cell lysates, not specified)
# T2 sequence (Q8R2Y0 1-336): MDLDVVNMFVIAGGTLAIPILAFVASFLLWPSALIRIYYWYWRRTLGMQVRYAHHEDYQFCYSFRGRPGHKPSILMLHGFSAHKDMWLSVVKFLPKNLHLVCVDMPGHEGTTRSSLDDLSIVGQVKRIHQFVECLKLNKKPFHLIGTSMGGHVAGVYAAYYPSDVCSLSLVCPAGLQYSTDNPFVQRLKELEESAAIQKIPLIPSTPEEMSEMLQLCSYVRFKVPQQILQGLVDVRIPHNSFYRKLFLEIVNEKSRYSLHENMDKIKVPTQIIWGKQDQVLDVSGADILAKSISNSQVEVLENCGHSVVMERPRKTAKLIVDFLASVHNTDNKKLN
# Protocol: as §1, §2
# [3] = target: T3, FAAH (Mus musculus, UniProt O08914); conditions: for inhibition at 10 µM: 10 μM inhibitor, read-out: % Inhibition at 10 μM, B = FAAH; for IC50: mouse brain membrane fraction or cell lysates, 30 min preincubation at 37° C., read-out: Mouse (IC50 value, nM) FAAH; for inhibition at 1 µM: 1 μM inhibitor, read-out: % Inhibition at 1 μM, B = FAAH
# T3 construct: Proteomes (mouse brain membrane fraction or cell lysates); from tissue; host or cells: mouse brain membrane fraction (or cell lysates, not specified)
# T3 sequence (O08914 1-579): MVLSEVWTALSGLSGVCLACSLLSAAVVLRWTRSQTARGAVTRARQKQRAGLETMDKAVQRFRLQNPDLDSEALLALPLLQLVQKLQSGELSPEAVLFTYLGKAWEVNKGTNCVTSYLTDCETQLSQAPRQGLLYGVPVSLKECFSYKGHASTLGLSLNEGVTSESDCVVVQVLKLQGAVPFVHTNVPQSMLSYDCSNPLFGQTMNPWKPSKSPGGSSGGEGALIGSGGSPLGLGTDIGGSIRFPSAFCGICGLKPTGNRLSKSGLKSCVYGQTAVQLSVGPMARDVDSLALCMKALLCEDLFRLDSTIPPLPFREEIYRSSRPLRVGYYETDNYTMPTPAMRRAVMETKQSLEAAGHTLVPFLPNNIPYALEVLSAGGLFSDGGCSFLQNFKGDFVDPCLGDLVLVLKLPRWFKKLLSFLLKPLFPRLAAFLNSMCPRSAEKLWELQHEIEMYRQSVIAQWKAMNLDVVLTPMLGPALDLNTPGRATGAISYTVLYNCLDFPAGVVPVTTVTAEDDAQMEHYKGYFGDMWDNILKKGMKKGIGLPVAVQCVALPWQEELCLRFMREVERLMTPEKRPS
# Protocol: as §1, §2
smiles,measurement,setting,value
"Cc1cnn(C(=O)NCc2ccc3ccccc3c2)c1 [Example 44, 4-Methyl-N-(naphthalen-2-ylmethyl)-1H-pyrazole-1-carboxamide]",inhibition at 10 µM,[1],< 25%
same,inhibition at 10 µM,[2],< 25%
same,inhibition at 10 µM,[3],< 25%
"O=C(N1CCN(C(c2ccc(Cl)cc2)c2ccc(Cl)cc2)CC1)n1cccn1 [Example 46, (4-(Bis(4-chlorophenyl)methyl)piperazin-1-yl)(1H-pyrazol-1-yl)methanone]",IC50,[1],< 100 nM
same,IC50,[2],> 1000 nM
same,IC50,[3],> 1000 nM
"O=C(N1CCN(Cc2ccc(Cl)cc2N2CCOCC2)CC1)n1cc(Cl)cn1 [Example 47, (4-Chloro-1H-pyrazol-1-yl)(4-(4-chloro-2-morpholinobenzyl)piperazin-1-yl)methanone]",IC50,[1],< 100 nM
same,IC50,[2],< 100 nM
same,IC50,[3],100 to 1000 nM
"O=C(c1cnn(C(=O)N2CCN(C(c3ccc(Cl)cc3)c3ccc(Cl)cc3)CC2)c1)N1CCCC1 [Example 48, (4-(Bis(4-chlorophenyl)methyl)piperazin-1-yl)(4-(pyrrolidine-1-carbonyl)-1H-pyrazol-1-yl)methanone]",IC50,[1],100 to 1000 nM
same,IC50,[2],100 to 1000 nM
same,IC50,[3],> 1000 nM
"O=C(NC1CC1)c1cnn(C(=O)N2CCN(C(c3ccc(Cl)cc3)c3ccc(Cl)cc3)CC2)c1 [Example 49, 1-(4-(Bis(4-chlorophenyl)methyl)piperazine-1-carbonyl)-N-cyclopropyl-1H-pyrazole-4-carboxamide]",IC50,[1],100 to 1000 nM
same,IC50,[2],100 to 1000 nM
same,IC50,[3],> 1000 nM
"O=C(N1CCN(Cc2ccc(Cl)cc2N2CCCC2)CC1)n1cc(Cl)cn1 [Example 50, (4-Chloro-1H-pyrazol-1-yl)(4-(4-chloro-2-(pyrrolidin-1-yl)benzyl)piperazin-1-yl)methanone]",IC50,[1],< 100 nM
same,IC50,[2],< 100 nM
same,IC50,[3],100 to 1000 nM
"O=C(c1cnn(C(=O)N2CCN(C(c3ccc(Cl)cc3)c3ccc(Cl)cc3)CC2)c1)N1CCCCC1 [Example 66, (4-(Bis(4-chlorophenyl)methyl)piperazin-1-yl)(4-(piperidine-1-carbonyl)-1H-pyrazol-1-yl)methanone]",inhibition at 1 µM,[1],> 75%
same,inhibition at 10 µM,[1],> 75%
same,IC50,[1],100 to 1000 nM
same,inhibition at 1 µM,[2],> 75%
same,inhibition at 10 µM,[2],> 75%
same,IC50,[2],100 to 1000 nM
same,inhibition at 1 µM,[3],< 25%
same,inhibition at 10 µM,[3],25 to 75%
same,IC50,[3],> 1000 nM
"O=C(c1cnn(C(=O)N2CCN(C(c3ccc(Cl)cc3)c3ccc(Cl)cc3)CC2)c1)N1CCC1 [Example 68, Azetidin-1-yl(1-(4-(bis(4-chlorophenyl)methyl)piperazine-1-carbonyl)-1H-pyrazol-4-yl)methanone]",inhibition at 1 µM,[1],> 75%
same,inhibition at 10 µM,[1],> 75%
same,IC50,[1],100 to 1000 nM
same,inhibition at 1 µM,[2],> 75%
same,inhibition at 10 µM,[2],> 75%
same,IC50,[2],100 to 1000 nM
same,inhibition at 1 µM,[3],< 25%
same,inhibition at 10 µM,[3],> 75%
same,IC50,[3],> 1000 nM
"Cc1cc(-c2ccccc2)ccc1CN1CCN(C(=O)n2cccn2)CC1 [Example 94, (4-((3-Methyl-[1,1′-biphenyl]-4-yl)methyl)piperazin-1-yl)(1H-pyrazol-1-yl)methanone]",IC50,[1],< 100 nM
same,IC50,[2],> 1000 nM
same,IC50,[3],100 to 1000 nM
"O=C(N1CCN(C(c2ccc3c(c2)COC3)c2ccc3c(c2)COC3)CC1)n1cc(Cl)cn1 [Example 95, (4-(Bis(1,3-dihydroisobenzofuran-5-yl)methyl)piperazin-1-yl)(4-chloro-1H-pyrazol-1-yl)methanone]",inhibition at 1 µM,[1],> 75%
same,inhibition at 1 µM,[2],> 75%
same,inhibition at 1 µM,[3],< 25%
"O=C(N1CCCCC1)n1cc(Cl)cn1 [Example 96, (4-Chloro-1H-pyrazol-1-yl)(piperidin-1-yl)methanone]",inhibition at 10 µM,[1],> 75%
same,inhibition at 10 µM,[2],> 75%
same,inhibition at 10 µM,[3],> 75%
"O=C(N1CCOCC1)n1cc(Cl)cn1 [Example 97, (4-Chloro-1H-pyrazol-1-yl)(morpholino)methanone]",inhibition at 10 µM,[1],< 25%
same,inhibition at 10 µM,[2],< 25%
same,inhibition at 10 µM,[3],> 75%
"O=C(N1CCCC1)n1cc(Cl)cn1 [Example 98, (4-Chloro-1H-pyrazol-1-yl)(pyrrolidin-1-yl)methanone]",inhibition at 10 µM,[1],25 to 75%
same,inhibition at 10 µM,[2],< 25%
same,inhibition at 10 µM,[3],> 75%
"O=C(N1CCN(Cc2c(N3CCCC3)cccc2C(F)(F)F)CC1)n1cc(Cl)cn1 [Example 99, (4-Chloro-1H-pyrazol-1-yl)(4-(2-(pyrrolidin-1-yl)-6-(trifluoromethyl)benzyl)piperazin-1-yl)methanone]",inhibition at 1 µM,[1],> 75%
same,inhibition at 1 µM,[2],> 75%
same,inhibition at 1 µM,[3],> 75%
"O=C(N1CCN(C(c2ccc(Cl)cc2)c2ccc(Cl)cc2)CC1)n1cc(Cl)cn1 [Example 100, (4-(Bis(4-chlorophenyl)methyl)piperazin-1-yl)(4-chloro-1H-pyrazol-1-yl)methanone]",IC50,[1],< 100 nM
same,IC50,[2],100 to 1000 nM
same,IC50,[3],> 1000 nM
"CC(C)n1cc(CN2CCN(C(=O)n3cc(Cl)cn3)CC2)c(-c2ccccc2)n1 [Example 101, (4-Chloro-1H-pyrazol-1-yl)(4-((1-isopropyl-3-phenyl-1H-pyrazol-4-yl)methyl)piperazin-1-yl)methanone]",inhibition at 1 µM,[1],> 75%
same,inhibition at 1 µM,[2],> 75%
same,inhibition at 1 µM,[3],> 75%
"O=C(N1CCN(Cc2ccc(Cl)cc2N2CCC3(CCOCC3)C2)CC1)n1cc(Cl)cn1 [Example 102, (4-Chloro-1H-pyrazol-1-yl)(4-(4-chloro-2-(8-oxa-2-azaspiro[4.5]decan-2-yl)benzyl)piperazin-1-yl)methanone]",inhibition at 1 µM,[1],> 75%
same,IC50,[1],< 100 nM
same,inhibition at 1 µM,[2],> 75%
same,IC50,[2],< 100 nM
same,inhibition at 1 µM,[3],< 25%
same,IC50,[3],> 1000 nM
"Cc1ccc(-c2cnn(C(=O)N3CCCC3)c2)cc1 [Example 104, Pyrrolidin-1-yl(4-(p-tolyl)-1H-pyrazol-1-yl)methanone]",inhibition at 10 µM,[1],< 25%
same,inhibition at 10 µM,[2],> 75%
same,inhibition at 10 µM,[3],> 75%
"O=C(N1CCCC1)n1cc(-c2ccc(Cl)cc2)cn1 [Example 105, (4-(4-Chlorophenyl)-1H-pyrazol-1-yl)(pyrrolidin-1-yl)methanone]",inhibition at 10 µM,[1],< 25%
same,inhibition at 10 µM,[2],> 75%
same,inhibition at 10 µM,[3],> 75%
"O=C(N1CCCC1)n1cc(-c2ccc(-c3ccccc3Cl)cc2)cn1 [Example 108, (4-(2′-Chloro-[1,1′-biphenyl]-4-yl)-1H-pyrazol-1-yl)(pyrrolidin-1-yl)methanone]",inhibition at 10 µM,[1],< 25%
same,inhibition at 10 µM,[2],> 75%
same,inhibition at 10 µM,[3],< 25%
"O=C(N1CCN(Cc2c(N3CCCC3)cccc2C(F)(F)F)CC1)n1cc(-c2ccccc2)cn1 [Example 109, (4-Phenyl-1H-pyrazol-1-yl)(4-(2-(pyrrolidin-1-yl)-6-(trifluoromethyl)benzyl)piperazin-1-yl)methanone]",inhibition at 10 µM,[1],25 to 75%
same,inhibition at 10 µM,[2],> 75%
same,inhibition at 10 µM,[3],> 75%
"Cc1cnn(C(=O)N2CCN(Cc3c(N4CCCC4)cccc3C(F)(F)F)CC2)c1 [Example 111, (4-Methyl-1H-pyrazol-1-yl)(4-(2-(pyrrolidin-1-yl)-6-(trifluoromethyl)benzyl)piperazin-1-yl)methanone]",inhibition at 10 µM,[1],> 75%
same,IC50,[1],100 to 1000 nM
same,inhibition at 10 µM,[2],> 75%
same,IC50,[2],100 to 1000 nM
same,inhibition at 10 µM,[3],25 to 75%
same,IC50,[3],> 1000 nM
